The target of test [1] is T1, reverse transcriptase of Moloney Murine leucaemia virus (Moloney murine leukemia virus, UniProt P03355).
T1 construct: reverse transcriptase of Moloney Murine leucaemia virus
As to the kind of experiment: inhibition of reverse transcriptase enzyme. It is filed as biochemical. The following applies: reverse transcriptase of MLV; method of Wu et al.; read-out: ID50 (dose that inhibits the RT activity by 50%) (converted). How it is done: Proof of the antiviral activity of the compounds of formula I against retroviruses is shown by in vitro and in vivo tests, but especially by an in vitro test system in which the inhibition of the reverse transcriptase enzyme is determined quantitatively by said compounds.
On poly A-oligo (dT), radioactively labelled TPP is hybridised with reverse transcriptase. The […] radioactivity is measured and serves as reference for the activity of the reverse transcriptase.
The ID50 of the compounds of formula I is determined by using them in the test system in different concentrations.
Sorangicin A is active against reverse transcriptase of Moloney Murine leucaemia virus; the ID50 [dose that inhibits the RT activity by 50%; method of Wu et al., Proc. Natl. Acad. Sci., 69, 3820 (1972)] for the reverse transcriptase of MLV is c. 7 μg/ml.

The test system of test [2] is Staphylococcus aureus Strain Wood 46 in human polymorphonuclear leucocytes. As to the kind of experiment: in vitro test on human polymorphonuclear leucocytes and Staphylococcus aureus Strain Wood 46. The class given is cell-based. Particulars: S. aureus Strain Wood 46. An excerpt:
In the in vitro test on human polymorphonuclear leucocytes and Staphylococcus aureus Strain Wood 46, sorangicin A is effective against bacteria that occur intracellularly, e.g. staphylococcae.

Take `CC(=CC(C)CCCCC(=O)O)C1OC2C=CC1OC(=O)C=CC=CC=CC1OC3CC1OC(C=CCC1OC(CC(O)C1C)C(O)C(O)C=CCCC=CC2)C3C` (stereo not drawn) [sorangicin A]: in test [1], the IC50 was about 8.67 µM. Moreover, in test [2], the “activity against bacteria that occur intracellularly” value is given as “effective” and the activity within leucocytes entry is recorded as “bactericidal activity”.

These data come from patent US5096922A, “Macrocyclic antibodies” (Gesellschaft fur Biotechnologische Forschung mbH, priority 1985, dated 1992).
